Test results as given in patent publication US20250179047A1, “5-[7-(3,4-DIHYDRO-1H-ISOQUINOLINE-2-CARBONYL)-1,2,3,4 TETRAHYDROISOQUINOLIN-6-YL]-1H-PYRROLE-3-CARBOXAMIDE DERIVATIVES, PHARMACEUTICAL COMPOSITIONS CONTAINING THEM AND THEIR USES AS PRO-APOPTOTIC AGENTS” (LES LABORATOIRES SERVIER, priority 2022, published 2025).
pKi: −log10 of the molar value. Read-outs that look alike come from different tables or passages of the source.

Tests used:
BCL2 D103Y = BCL2 D103Y (Homo sapiens, UniProt P10415, D103Y); assay: TR-FRET competitive binding assay, BCL2 D103Y; conditions: Ki determined from IC50, read-out: TR_FRET EKI_Bcl2 D103Y
Protocol: (§1) The relative binding potency of each compound was determined in a competitive binding assay using time resolved-fluorescence resonance energy transfer (TR-FRET). The method utilised a fluorescein labelled peptide derived from PUMA (5Flu-Ahx-[…]-NH2 wherein Ahx means 6-hexanoic acid monomer and the amino acid sequence is referred to as SEQ ID:01) which binds to a terbium labelled BCL2 or BCLXL protein. The degree of binding or corresponding compound inhibition can be quantified by the TR-FRET signal between the terbium donor and fluorescein acceptor.
(§2) The human BCL2_wild-type (also named BCL2_wt), BCL2_G101V mutant and BCLXL_wild-type were E. coli expressed as a N-terminal Halo-fusion proteins and singly labelled with Terbium on the Halo protein to afford the following amino acid sequences:
(§3) wherein the BCL2(1-207) sequence corresponds to UniProtKB® primary accession number P10415 and the BCLXL(2-196) sequence corresponds to UniProtKB® primary accession number Q07817-1.
(§4) The assay was performed in a 40 μL volume in white 384-standard well plates (Corning #3574). An 11-point serial dilution of each compound was prepared in DMSO and transferred directly to plate followed by addition of fluorescein labelled peptide and lastly protein. Final assay conditions were 0.5 nM BCL2_wt, BCL2_G101V, BCL2_D103Y, BCL2_F104I, BCL2_D111A or BCLXL_wt, 2 or 20 nM fluorescein labelled peptide, 50 mM Hepes pH 7.5, 150 mM NaCl, 0.5 mM TCEP (Tris(2-carboxyethyl)phosphine), 0.05% Tween 20, 5% DMSO. The mixture was incubated for 2 hours at 23° C.
(§5) TR-FRET measurements were performed on a Biotek Synergy Neo plate reader. TR-FRET was measured by excitation of the Terbium-donor at 340 nm and subsequent (delay time 100 μs) measurement of terbium and fluorescein emission at 495 nm and 520 nm, respectively, over a collection time of 300 μs. The TR-FRET signal was calculated as the emission-ratio at 520 nm over 495 nm.
(§6) The TR-FRET ratio readout for test compounds was normalized against 0% inhibition controls wells and 100% inhibition control wells. Test compound potency (IC50) was estimated by nonlinear regression using the sigmoidal dose-response (variable slope) using Xlfit 4 (IDBS, Guildford, Surrey, UK, model 205). Were the IC50 could not be determined the % inhibition at the highest tested concentration is given.
(§7) y=(A+((B−A)/(1+((C/x)^D))))
(§8) where y is the normalized TR-TRET ratio measurement for a given concentration of test compound, x is the concentration of test compound, A is the estimated efficacy (% inhibition) at infinite compound dilution, and B is the maximal efficacy (% inhibition). C is the IC50 value and D is the Hill slope coefficient.
(§9) The K1 values were determined from the IC50 values according to Cer et al, Nucleic Acids Res, 2009, July 1; 37 (WebServer issue): W441-W445.

BCL2 G101V [1] = assay: TR-FRET competitive binding assay, BCL2 G101V; parameters: species or system human; conditions: for TR_FRET EKI G101V/WT selectivty ratio: ratio Ki BCL2 G101V / Ki BCL2 WT; for TR_FRET EKI G101V/WT selectivty: ratio of Ki BCL2 G101V to BCL2 WT
Protocol: as §1, §2, §3, §4, §5, §6, §7, §8, §9

BCL2 G101V [2] = molecular target: BCL2 G101V (Homo sapiens, UniProt P10415, G101V); assay: TR-FRET competitive binding assay, BCL2 G101V; conditions: BCL2 G101V; Ki determined from IC50; read-out: TR_FRET EKI_Bcl2 G101V
Protocol: as §1, §2, §3, §4, §5, §6, §7, §8, §9

BCL2 WT = BCL2 WT (Homo sapiens (Human), UniProt P10415); assay: TR-FRET competitive binding assay, BCL2 WT
Protocol: as §1, §2, §3, §4, §5, §6, §7, §8, §9

BCLXL WT = BCLXL WT (Homo sapiens (Human), UniProt Q07817); assay: TR-FRET competitive binding assay, BCLXL WT; conditions: for pKi: BCLXL WT, Ki determined from IC50, read-out: TR_FRET EKI BclxL; for TR_FRET EKI BCLxL/WT selectivty ratio: ratio Ki BCLxL / Ki BCL2 WT; for TR_FRET EKI BCLxL/WT selectivty: ratio of Ki BCLxL to BCL2 WT
Protocol: as §1, §2, §3, §4, §5, §6, §7, §8, §9

KMS-12-PE Bcl-2 WT = assay: In vitro cytotoxicity CellTiter-Glo 48 h, KMS-12-PE Bcl-2 WT; type: cell-based; conditions: Homo sapiens, KMS-12-PE, C50 = concentration needed to reach 50% of the cellular viability
Protocol: KMS-12-PE (ACC 606) were purchased from the Leibniz-Institute DSMZ (Braunschweig, Germany) and were grown at 37° C. in a humidified atmosphere with […] in media recommended by the suppliers. Lentiviral particles containing Bcl-2 wild type (also named “Bcl2 WT”) and Bcl-2 mutated on G101V (also named “Bcl2 G101V”) were cloned into pcLV-CMV-DEST-IRES-TagRFP. Lentiviral particles (1×106) were mixed with Polybrene at 8 µg/ml and transduced by spinoculation for 1 h at 32° C. and incubated overnight. After 8 days, TagRFP positive-cells were sorted by FACS. BCL2 expression was monitored by immunoblotting using anti-Flag and anti-BCL2 antibodies.
Cellular viability was monitored with the cell viability assay (CellTiter-Glo®) on KMS-12-PE WT and G101V cell lines. The CellTiter-Glo® (CTG) Luminescent Cell Viability Assay (from Promega) is a homogeneous method to determine the number of viable cells in culture based on quantitation of the ATP present, which signals the presence of metabolically active cells.
Dose response of compounds are performed with 10 mM stock solutions (DMSO), 11-points curve, in a 384-well compound plate. The assay plate is prepared by stamping 40 nL from compound dilution plate of all different concentrations (e.g. 10 mM to have final […] assay test) into a cell culture microplate, using Echo acoustic liquid handling (Labcyte, Beckman). 40 μl of cell solution is added and cells are incubated with compounds for 48 h at 37° C., 5% CO2. CTG was added to the cells (according to the manufacturer instructions) and luminescence intensity was recorded using the Pherastar plate reader (BMG).
This assay provides in vitro cellular potency of the tested Bcl-2 inhibitors, measuring the C50, defined as the concentration needed to reach 50% of the cellular viability.

[3] = Ki determined from IC50, read-out: TR_FRET EKI_Bcl2 WT
[4] = Ki determined from IC50, read-out: TR_FRET EKI_Bcl2

BCLXL WT, sequence (Q07817 other isoform, or with tags, fused parts or gaps): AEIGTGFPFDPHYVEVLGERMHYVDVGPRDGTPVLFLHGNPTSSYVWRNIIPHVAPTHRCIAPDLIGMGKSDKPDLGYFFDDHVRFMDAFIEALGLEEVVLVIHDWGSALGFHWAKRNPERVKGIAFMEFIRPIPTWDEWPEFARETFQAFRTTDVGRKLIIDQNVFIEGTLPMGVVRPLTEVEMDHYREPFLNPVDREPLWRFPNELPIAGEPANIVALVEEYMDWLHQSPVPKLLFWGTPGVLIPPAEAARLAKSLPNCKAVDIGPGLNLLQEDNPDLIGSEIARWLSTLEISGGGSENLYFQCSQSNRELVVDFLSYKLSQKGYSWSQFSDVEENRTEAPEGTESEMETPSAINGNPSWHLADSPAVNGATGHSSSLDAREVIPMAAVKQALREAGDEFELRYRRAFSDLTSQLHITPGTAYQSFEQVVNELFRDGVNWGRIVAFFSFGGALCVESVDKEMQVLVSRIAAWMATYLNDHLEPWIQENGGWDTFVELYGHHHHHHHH

Structure (SMILES)	pKi (BCL2 D103Y)	TR_FRET EKI G101V/WT selectivty ratio (BCL2 G101V [1])	pKi (BCL2 G101V [2])	pKi (BCL2 WT; [3])	pKi (BCLXL WT)	TR_FRET EKI BCLxL/WT selectivty ratio (BCLXL WT)	TR_FRET EKI G101V/WT selectivty (BCL2 G101V [1])	pKi (BCL2 WT; [4])	TR_FRET EKI BCLxL/WT selectivty (BCLXL WT)	IC50 (KMS-12-PE Bcl-2 WT) [µM]
Cc1c(N(C(=O)c2cc(-c3cc4c(cc3C(=O)N3Cc5ccccc5C[C@H]3CN3CCCCC3)CN(C(=O)C(F)(F)c3ccc(OCCN5CCOCC5)cc3)CC4)n(C)c2C)c2ccc(O)cc2)cc(C#N)n1C [Example 178, N-(5-cyano-1,2-dimethyl-pyrrol-3-yl)-5-[2-[2,2-difluoro-2-[4-(2-morpholinoethoxy)phenyl]acetyl]-7-[(3S)-3-(1-piperidylmethyl)-3,4-dihydro-1H-isoquinoline-2-carbonyl]-3,4-dihydro-1H-isoquinolin-6-yl]-N-(4-hydroxyphenyl)-1,2-dimethyl-pyrrole-3-carboxamide]	9.80	15.3	8.89	10.05	7.92	137.8	–	–	–	0.0109
Cc1c(C(=O)N(c2ccc(O)cc2)c2cc(C#N)n(C(F)F)c2C)cc(-c2cc3c(cc2C(=O)N2Cc4ccccc4C[C@H]2CN2CC4(CCC4)C2)CN(C(=O)Cc2ccc(OCCC4CCOCC4)cc2)CC3)n1C [Example 180, 5-[7-[(3S)-3-(2-azaspiro[3.3]heptan-2-ylmethyl)-3,4-dihydro-1H-isoquinoline-2-carbonyl]-2-[2-[4-(2-tetrahydropyran-4-ylethoxy)phenyl]acetyl]-3,4-dihydro-1H-isoquinolin-6-yl]-N-[5-cyano-1-(difluoromethyl)-2-methyl-pyrrol-3-yl]-N-(4-hydroxyphenyl)-1,2-dimethyl-pyrrole-3-carboxamide]	9.82	4.5	9.52	10.15	7.76	252.5	–	–	–	0.0078
COc1ccc(N(C(=O)c2cc(-c3cc4c(cc3C(=O)N3Cc5ccccc5C[C@H]3CN3CC5(CCC5)C3)CN(C(=O)Cc3ccc(OCCN5CCOCC5)cc3F)CC4)n(C)c2C)c2ccc(O)cc2)cc1C#N [Example 181, 5-[7-[(3S)-3-(2-azaspiro[3.3]heptan-2-ylmethyl)-3,4-dihydro-1H-isoquinoline-2-carbonyl]-2-[2-[2-fluoro-4-(2-morpholinoethoxy)phenyl]acetyl]-3,4-dihydro-1H-isoquinolin-6-yl]-N-(3-cyano-4-methoxy-phenyl)-N-(4-hydroxyphenyl)-1,2-dimethyl-pyrrole-3-carboxamide]	10.05	9.9	9.40	10.40	8.05	248.7	–	–	–	0.0194

Now from value to compound, other results behind:

pKi (BCL2 D103Y)	TR_FRET EKI G101V/WT selectivty ratio (BCL2 G101V [1])	pKi (BCL2 G101V [2])	pKi (BCL2 WT; [3])	pKi (BCLXL WT)	TR_FRET EKI BCLxL/WT selectivty ratio (BCLXL WT)	TR_FRET EKI G101V/WT selectivty (BCL2 G101V [1])	pKi (BCL2 WT; [4])	TR_FRET EKI BCLxL/WT selectivty (BCLXL WT)	Structure (SMILES)	IC50 (KMS-12-PE Bcl-2 WT) [µM]
9.52	13.3	8.82	9.96	7.93	107.1	–	–	–	COc1ccc(N(C(=O)c2cc(-c3cc4c(cc3C(=O)N3Cc5ccccc5C[C@H]3C)CN(C(=O)Cc3ccc(OCCN5CCOCC5)cc3)CC4)n(C)c2C)c2ccccc2)cc1C#N [Example 182, N-(3-cyano-4-methoxy-phenyl)-1,2-dimethyl-5-[7-[(3R)-3-methyl-3,4-dihydro-1H-isoquinoline-2-carbonyl]-2-[2-[4-(2-morpholinoethoxy)phenyl]acetyl]-3,4-dihydro-1H-isoquinolin-6-yl]-N-phenyl-pyrrole-3-carboxamide]	0.0097
9.59	9.3	8.80	9.74	8.37	24.6	–	–	–	Cc1cc(OCCN2CCOCC2)c(F)cc1CC(=O)N1CCc2cc(-c3cc(C(=O)N(c4ccc(O)cc4)c4cc(C#N)n(C)c4C)c(C)n3C)c(C(=O)N3Cc4ccccc4C[C@H]3CN3CCCCC3)cc2C1 [Example 223, N-(5-cyano-1,2-dimethyl-pyrrol-3-yl)-5-[2-[2-[5-fluoro-2-methyl-4-(2-morpholinoethoxy)phenyl]acetyl]-7-[(3S)-3-(1-piperidylmethyl)-3,4-dihydro-1H-isoquinoline-2-carbonyl]-3,4-dihydro-1H-isoquinolin-6-yl]-N-(4-hydroxyphenyl)-1,2-dimethyl-pyrrole-3-carboxamide]	–
9.74	–	9.10	–	8.89	–	10.5	10.14	17.7	Cc1cc(OCCN2CCOCC2)c(F)cc1CC(=O)N1CCc2cc(-c3cc(C(=O)N(c4ccc(O)cc4)c4cc(C#N)n(C)c4C)c(C)n3C)c(C(=O)N3Cc4ccccc4C[C@H]3C)cc2C1 [Example 224, N-(5-cyano-1,2-dimethyl-pyrrol-3-yl)-5-[2-[2-[5-fluoro-2-methyl-4-(2-morpholinoethoxy)phenyl]acetyl]-7-[(3R)-3-methyl-3,4-dihydro-1H-isoquinoline-2-carbonyl]-3,4-dihydro-1H-isoquinolin-6-yl]-N-(4-hydroxyphenyl)-1,2-dimethyl-pyrrole-3-carboxamide]	–
9.85	–	7.59	–	7.63	–	233.0	9.96	214.3	Cc1cc(OCCN2CCOCC2)c(F)cc1CC(=O)N1CCc2cc(-c3cc(C(=O)N(c4ccccc4)c4cnn(C)c4)c(C)n3C)c(C(=O)N3Cc4ccccc4C[C@H]3C)cc2C1 [Example 225, 5-[2-[2-[5-fluoro-2-methyl-4-(2-morpholinoethoxy)phenyl]acetyl]-7-[(3R)-3-methyl-3,4-dihydro-1H-isoquinoline-2-carbonyl]-3,4-dihydro-1H-isoquinolin-6-yl]-1,2-dimethyl-N-(1-methylpyrazol-4-yl)-N-phenyl-pyrrole-3-carboxamide]	–
